{
  "source": "patent US8426194B2",
  "about": "“Methods and agents for screening for compounds capable of modulating VEGF expression” (PTC Therapeutics, Inc., priority 2003, dated 2013)",
  "system": "VEGF UTRs",
  "assay": "Luciferase reporter inhibition in B9 (VEGF UTRs) versus B12 (no VEGF UTRs) cell lines",
  "assay_type": "cell-based, human",
  "conditions": "B9 with VEGF 5'- and 3'-UTRs, B12 without",
  "description": "A monocistronic reporter construct (pLuc/vegf5′+3′UTR) is under the transcriptional control of the CMV promoter and contains a VEGF IRES driving the luciferase reporter, which nucleic acid sequences are both upstream of a VEGF 3′-UTR. Stable cell lines are generated by transfecting 293 cells with the pLuc/vegf5′+3′UTR. A stable cell line is cultured under hygromycin B selection to create clonal cell lines consistent with protocols well known in the art. After two weeks of selection, clonal cell lines are screened for luciferase activity. The luciferase activity of several clonal cell lines (hereafter “clones”) are compared and normalized against total protein content. Clones are maintained under hygromycin B selection for more than three months with intermittent monitoring of luciferase activity. Clones are stable and maintain a high level of luciferase expression. Many clones, for example, about twenty, may be compared to each other with respect to luciferase activity. […] Particular parameters for clones are studied prior to selection for use in post-transcriptional, high-throughput screening (PTHTS). Relevant parameters for PTHTS include, but are not limited to, cell number, incubation time, DMSO concentration, and volume of substrate. The B9 cell line harbors the firefly luciferase reporter driven by the CMV promoter and flanked by the 5′- and 3′-UTRs of VEGF transcripts. […]",
  "data": [
    {"molecule": "COc1ccc(C[C@H](N)C(=O)N[C@H]2[C@@H](O)[C@H](n3cnc4c(N(C)C)ncnc43)O[C@@H]2CO)cc1", "note": "[puromycin]", "values": [
      {"measurement": "UTR specificity: luciferase inhibition in B9 versus B12 cell lines", "value": "does not change the difference of inhibition in luciferase expression in these two cell lines"}
    ]}
  ]
}
